{
  "source": "the NIST ThermoML archive (doi:10.1016/j.jct.2015.11.020)",
  "experiment": "mn = molality of the nth substance listed, in mol/kg",
  "settings": "100 kPa, Liquid; for speed of sound: Frequency=3 MHz, Sing-around technique in a fixed-path interferometer; for mass density: Vibrating tube method",
  "note": "Numbers after ± are expanded uncertainties.",
  "data": [
    {"smiles": "N[C@@H](CO)C(=O)O", "note": "[L-serine] + O", "values": [
      {"measurement": "speed of sound", "setting": "305.15 K, m1 = 0.1012", "result": "1519.7 ± 1.6", "unit": "m/s"},
      {"measurement": "speed of sound", "setting": "305.15 K, m1 = 0.1997", "result": "1525.5 ± 1.6", "unit": "m/s"},
      {"measurement": "speed of sound", "setting": "305.15 K, m1 = 0.3", "result": "1531.1 ± 1.6", "unit": "m/s"},
      {"measurement": "speed of sound", "setting": "305.15 K, m1 = 0.3986", "result": "1536.8 ± 1.7", "unit": "m/s"},
      {"measurement": "speed of sound", "setting": "305.15 K, m1 = 0.4987", "result": "1542.2 ± 1.7", "unit": "m/s"},
      {"measurement": "speed of sound", "setting": "305.15 K, m1 = 0.6008", "result": "1548 ± 1.8", "unit": "m/s"},
      {"measurement": "speed of sound", "setting": "305.15 K, m1 = 0.6973", "result": "1553.3 ± 1.8", "unit": "m/s"},
      {"measurement": "speed of sound", "setting": "305.15 K, m1 = 0.8", "result": "1558.8 ± 1.8", "unit": "m/s"},
      {"measurement": "speed of sound", "setting": "305.15 K, m1 = 0.9003", "result": "1564 ± 1.9", "unit": "m/s"},
      {"measurement": "speed of sound", "setting": "305.15 K, m1 = 0.9963", "result": "1569.2 ± 1.9", "unit": "m/s"},
      {"measurement": "mass density", "setting": "305.15 K, m1 = 0.1012", "result": "999.763 ± 1", "unit": "kg/m3"},
      {"measurement": "mass density", "setting": "305.15 K, m1 = 0.1997", "result": "1003.99 ± 1", "unit": "kg/m3"},
      {"measurement": "mass density", "setting": "305.15 K, m1 = 0.3", "result": "1008.2 ± 1.1", "unit": "kg/m3"},
      {"measurement": "mass density", "setting": "305.15 K, m1 = 0.3986", "result": "1012.53 ± 1.1", "unit": "kg/m3"},
      {"measurement": "mass density", "setting": "305.15 K, m1 = 0.4987", "result": "1016.75 ± 1.1", "unit": "kg/m3"},
      {"measurement": "mass density", "setting": "305.15 K, m1 = 0.6008", "result": "1021.43 ± 1.2", "unit": "kg/m3"},
      {"measurement": "mass density", "setting": "305.15 K, m1 = 0.6973", "result": "1025.53 ± 1.2", "unit": "kg/m3"},
      {"measurement": "mass density", "setting": "305.15 K, m1 = 0.8", "result": "1029.74 ± 1.2", "unit": "kg/m3"},
      {"measurement": "mass density", "setting": "305.15 K, m1 = 0.9003", "result": "1033.96 ± 1.3", "unit": "kg/m3"},
      {"measurement": "mass density", "setting": "305.15 K, m1 = 0.9963", "result": "1037.97 ± 1.3", "unit": "kg/m3"},
      {"measurement": "speed of sound", "setting": "310.15 K, m1 = 0.1012", "result": "1529.4 ± 1.6", "unit": "m/s"},
      {"measurement": "speed of sound", "setting": "310.15 K, m1 = 0.1997", "result": "1535.1 ± 1.6", "unit": "m/s"},
      {"measurement": "speed of sound", "setting": "310.15 K, m1 = 0.3", "result": "1540.5 ± 1.6", "unit": "m/s"},
      {"measurement": "speed of sound", "setting": "310.15 K, m1 = 0.3986", "result": "1546.1 ± 1.7", "unit": "m/s"},
      {"measurement": "speed of sound", "setting": "310.15 K, m1 = 0.4987", "result": "1551.4 ± 1.7", "unit": "m/s"},
      {"measurement": "speed of sound", "setting": "310.15 K, m1 = 0.6008", "result": "1556.9 ± 1.8", "unit": "m/s"},
      {"measurement": "speed of sound", "setting": "310.15 K, m1 = 0.6973", "result": "1562.2 ± 1.8", "unit": "m/s"},
      {"measurement": "speed of sound", "setting": "310.15 K, m1 = 0.8", "result": "1567.6 ± 1.8", "unit": "m/s"},
      {"measurement": "speed of sound", "setting": "310.15 K, m1 = 0.9003", "result": "1572.7 ± 1.9", "unit": "m/s"},
      {"measurement": "speed of sound", "setting": "310.15 K, m1 = 0.9963", "result": "1577.7 ± 1.9", "unit": "m/s"},
      {"measurement": "mass density", "setting": "310.15 K, m1 = 0.1012", "result": "997.637 ± 1", "unit": "kg/m3"},
      {"measurement": "mass density", "setting": "310.15 K, m1 = 0.1997", "result": "1001.83 ± 1", "unit": "kg/m3"},
      {"measurement": "mass density", "setting": "310.15 K, m1 = 0.3", "result": "1006.11 ± 1.1", "unit": "kg/m3"},
      {"measurement": "mass density", "setting": "310.15 K, m1 = 0.3986", "result": "1010.31 ± 1.1", "unit": "kg/m3"},
      {"measurement": "mass density", "setting": "310.15 K, m1 = 0.4987", "result": "1014.57 ± 1.1", "unit": "kg/m3"},
      {"measurement": "mass density", "setting": "310.15 K, m1 = 0.6008", "result": "1018.92 ± 1.2", "unit": "kg/m3"},
      {"measurement": "mass density", "setting": "310.15 K, m1 = 0.6973", "result": "1023.03 ± 1.2", "unit": "kg/m3"},
      {"measurement": "mass density", "setting": "310.15 K, m1 = 0.8", "result": "1027.41 ± 1.2", "unit": "kg/m3"},
      {"measurement": "mass density", "setting": "310.15 K, m1 = 0.9003", "result": "1031.68 ± 1.3", "unit": "kg/m3"},
      {"measurement": "mass density", "setting": "310.15 K, m1 = 0.9963", "result": "1035.77 ± 1.4", "unit": "kg/m3"},
      {"measurement": "speed of sound", "setting": "315.15 K, m1 = 0.1012", "result": "1537.7 ± 1.6", "unit": "m/s"},
      {"measurement": "speed of sound", "setting": "315.15 K, m1 = 0.1997", "result": "1543.3 ± 1.6", "unit": "m/s"},
      {"measurement": "speed of sound", "setting": "315.15 K, m1 = 0.3", "result": "1548.4 ± 1.6", "unit": "m/s"},
      {"measurement": "speed of sound", "setting": "315.15 K, m1 = 0.3986", "result": "1554 ± 1.7", "unit": "m/s"},
      {"measurement": "speed of sound", "setting": "315.15 K, m1 = 0.4987", "result": "1559.2 ± 1.7", "unit": "m/s"},
      {"measurement": "speed of sound", "setting": "315.15 K, m1 = 0.6008", "result": "1564.5 ± 1.7", "unit": "m/s"},
      {"measurement": "speed of sound", "setting": "315.15 K, m1 = 0.6973", "result": "1569.6 ± 1.8", "unit": "m/s"},
      {"measurement": "speed of sound", "setting": "315.15 K, m1 = 0.8", "result": "1575 ± 1.8", "unit": "m/s"},
      {"measurement": "speed of sound", "setting": "315.15 K, m1 = 0.9003", "result": "1579.9 ± 1.9", "unit": "m/s"},
      {"measurement": "speed of sound", "setting": "315.15 K, m1 = 0.9963", "result": "1584.9 ± 1.9", "unit": "m/s"},
      {"measurement": "mass density", "setting": "315.15 K, m1 = 0.1012", "result": "995.748 ± 1", "unit": "kg/m3"},
      {"measurement": "mass density", "setting": "315.15 K, m1 = 0.1997", "result": "999.945 ± 1", "unit": "kg/m3"},
      {"measurement": "mass density", "setting": "315.15 K, m1 = 0.3", "result": "1004.22 ± 1.1", "unit": "kg/m3"},
      {"measurement": "mass density", "setting": "315.15 K, m1 = 0.3986", "result": "1008.42 ± 1.1", "unit": "kg/m3"},
      {"measurement": "mass density", "setting": "315.15 K, m1 = 0.4987", "result": "1012.68 ± 1.1", "unit": "kg/m3"},
      {"measurement": "mass density", "setting": "315.15 K, m1 = 0.6008", "result": "1017.03 ± 1.1", "unit": "kg/m3"},
      {"measurement": "mass density", "setting": "315.15 K, m1 = 0.6973", "result": "1021.14 ± 1.2", "unit": "kg/m3"},
      {"measurement": "mass density", "setting": "315.15 K, m1 = 0.8", "result": "1025.52 ± 1.2", "unit": "kg/m3"},
      {"measurement": "mass density", "setting": "315.15 K, m1 = 0.9003", "result": "1029.79 ± 1.3", "unit": "kg/m3"},
      {"measurement": "mass density", "setting": "315.15 K, m1 = 0.9963", "result": "1033.88 ± 1.3", "unit": "kg/m3"}
    ]}
  ]
}
